“And” between values parts separate entries of the source, which are not always exact repeats. Equal values may be shown once.
Experiments:
[1] = system: XBP1 mRNA splicing in HEK293T cells; assay: XBP1 mRNA splicing by RT-PCR in HEK293T cells; format: cell-based, human; conditions: for XBP1 mRNA splicing (in words): IPAx 2 µM, 4 hr
Method: To examine the effects of IPA in living cells, we monitored the UPR in HEK293T cells using RT-PCR to measure splicing of XBP1 mRNA. […] At a concentration of 2 μM IPA, splicing was induced within 2 hr (lane 5). […] We used tunicamycin (Tm), which induces ER stress by blocking N-linked glycosylation, as a positive control to induce the UPR (Figure 2A, lanes 7, and Figure 2B, lane 4).
Cells were lysed and total RNA was collected (Total RNA Kit 1, EZ-RNA, EZNA [USA]). PolyA^+ mRNA was reverse transcribed with M-MLV (Invitrogen), and the resulting cDNA was used as a template for PCR amplification across the fragment of XBP1 cDNA containing the intron. Primers used to amplify human XBP1: 5′-[…]-3′ and 5′-[…]-3′. To amplify murine XBP1: 5′-[…]-3′ and 5′-[…]-3′. PCR conditions were as follows: 95°C for 5 min, 95°C for 1 min, 58°C for 30 s, 72°C for 30 s, and 72°C for 5 min, with 20 cycles of amplification. PCR products were resolved on a 2.5% agarose tris-acetate EDTA (TAE) gel. As previously reported, a hybrid amplicon species consisting of unspliced Xbp-1 annealed to spliced Xbp-1 can also be produced through this PCR reaction and was visible as a slower migrating band above the unspliced amplicon. The same cDNA was used as template for PCR of DERLIN-3 and HERPUD1, both ATF6 targets, and GAPDH, which was used as loading control. Primers used included the following: DERLIN-3, 5′-[…]-3′ and 5′-[…]-3′; HERPUD1-1, 5′-[…]-3′ and 5′-[…]-3′; GAPDH, 5′-[…]-3′ and 5′-[…]-3′. PCR conditions were: 95°C × 5 min, 95°C × 1 min, 56°C × 30 s, 72°C for 30 s for 25 cycles, 72°C for 5 min at 4°C. PCR products were resolved on a 2% agarose TAE gel.

HEK293T cells = assay: HEK293T cell viability (CellTiter-Blue, 24 hr); format: cell-based; conditions: 24 hr
Method: HEK293T cells were grown in DMEM (Sigma) complete media containing 10% FBS, 10 units/ml penicillin (Invitrogen), and 10 μg/ml streptomycin (Invitrogen). Cells were plated at a density of 30,000 cells per well in 96-well black plates with clear flat bottoms (Corning, Sigma-Aldrich) 24 hr before the experiment. A 12-point semi-logarithmic dilution series of compounds was made starting at 30 μM not to exceed 0.1% DMSO after final dilution into the growth media. Viability assays were conducted over the course of 24 hr. Cell viability was determined using CellTiter-Blue (Promega) following the manufacturer's instructions. […] Experiments were done in triplicate, and mean values were computed for each data point.

[2] = system: PERK and eIF2α phosphorylation in HEK293T cells; assay: PERK mobility shift and eIF2α phosphorylation by immunoblotting in HEK293T cells; format: cell-based
Method: To evaluate effects of IPA on the PERK branch, we measured the phosphorylation state of PERK and eIF2α by Western blotting. […] We also monitored PERK activation by phosphorylation of eIF2α, detected with a phospho-eIF2α-specific antibody (Figure 3C).
Cells were lysed in 50 mM Tris-HCl, 2% SDS, 10% glycerol, 0.01% bromophenol blue, pH 6.8 supplemented with phosphatase inhibitors (Sigma) and protease inhibitors (Roche). 30 μg to 50 μg of total protein was loaded on each lane of 8% or 10% SDS-PAGE gels. The separated proteins were then transferred onto nitrocellulose membranes for immunoblotting. The following antibodies and dilutions were used: anti-β-actin 1:10,000 (A5441, Sigma), anti-total PERK at 1:1000 (C33E10, Cell Signaling Technology), anti-phospho eIF2α at 1:1000 (3597S, Cell Signaling Technology), anti-total eIF2α at 1:1000 (L57A5, Cell Signaling Technology). After overnight incubation with primary antibody, membranes were washed in PBS with 0.05% Tween and incubated in HRP-coupled secondary antibody anti-rabbit (611–1302, Rockland) or anti-mouse (610–1302, Rockland) diluted at 1:5000 in wash buffer. Immunoreactive bands were detected by chemiluminescence.

[3] = target: T1, PERK cytosolic domain (535–1093 Δ660–868) (Homo sapiens, UniProt Q9NZJ5, DEL660-868); assay: In vitro PERK cross-linking assay; format: biochemical; conditions: PERK 2 μM; IPAx 50 μM
T1 construct: GST (N, cleaved yes); made in house; host or cells: E. coli BL21 star (DE3), co-expressed with lambda phosphatase
T1 sequence (Q9NZJ5 with tags, fused parts or gaps DEL660-868): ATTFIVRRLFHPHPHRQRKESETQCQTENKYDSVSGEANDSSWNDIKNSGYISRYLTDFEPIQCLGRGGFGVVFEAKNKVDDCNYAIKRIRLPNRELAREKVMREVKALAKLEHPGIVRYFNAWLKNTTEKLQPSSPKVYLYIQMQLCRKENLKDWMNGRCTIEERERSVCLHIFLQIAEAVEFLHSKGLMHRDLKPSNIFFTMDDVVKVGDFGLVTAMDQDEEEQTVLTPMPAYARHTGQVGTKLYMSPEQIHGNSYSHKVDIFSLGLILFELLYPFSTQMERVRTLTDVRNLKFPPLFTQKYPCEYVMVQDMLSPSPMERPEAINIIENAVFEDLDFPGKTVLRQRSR
Method: A solution of PERK cytosolic domain (535–1093 Δ660–868) (2 μM) was incubated with IPA or IPAx for 15 min before the addition of 250 μM of the amino group-reactive cross-linking agent bis[sulfosuccinimidyl] […] (BS2g-d0, Thermo Scientific). After 30-min incubation at room temperature Tris-HCl pH 7.5 was added to a final concentration of 55 mM. Samples were then boiled in Laemmli sample buffer and loaded into an Any kD Mini-protean TGX gel (Bio Rad). Cross-linked protein was visualized using Colloidal Coomassie G-250 stain.

[4] = system: protein translation in HEK293T cells; assay: Metabolic labeling: [35S] methionine incorporation in HEK293T cells; format: cell-based; conditions: IPA 1 μM
Method: HEK293T cells (500,000 cells/ml) were plated in 12-well flat bottom culture cluster dishes (Costar, Fisher Scientific) 24 hr before the experiment. IPA (1 μM), or a combination of IPA with GSK2606414 (TRC inc. […] Cells lysates were kept on ice for 30 min before high-speed centrifugation followed by denaturation at 95°C. The samples were resolved on an SDS-polyacrylamide gel, which were then stained with Coomassie blue to ascertain protein loading. […] The resulting autoradiograms were quantified using ImageQuant software (Molecular Dynamics).

In the case of `CSc1ccc(NC(=O)Nc2ccc(Nc3nccc(Nc4cc(C5CC5)[nH]n4)n3)cc2)cc1` [IPA], the “time until XBP1 mRNA splicing was induced” value ([1]; 2 μM IPA) is reported as at most 2 h, the “XBP1 mRNA splicing (in words)” value [1] is reported as “induced XBP1 mRNA splicing in a time- and dose-dependent manner” and the “LD50 cell viability in the presence of 1 μM GSK” value (HEK293T cells; IPA + 1 μM GSK2606414) is reported as 6.21 µM and 6.2 µM. For the same compound, the LD50 cell viability (HEK293T cells; IPA alone) was 0.82 µM and 0.8 µM, the “Tm activation of PERK in the presence of compound” value ([2]; 4 μM IPA + Tm 2 µg/ml) was “Tm addition did not activate PERK” and the “PERK phosphorylation (mobility shift), paralleled by eIF2α phosphorylation” value ([2]; 4 hr, 0.1, 0.5, and 1 µM) was “induced a shift in the mobility of PERK”. For the same compound, the “PERK phosphorylation (mobility shift), paralleled by eIF2α phosphorylation” value ([2]; 4 hr, 2 and 4 μM) was “severely diminished or not detectable”, the “reversibility of PERK inhibition (wash-out)” value ([2]; IPA wash-out then Tm) was “reversible” and the “PERK oligomerization (cross-linked dimers, trimers, tetramers)” value [3] was “significantly increased PERK oligomerization”. For the same compound, the “incorporation of [35S]-methionine into newly synthesized proteins” value [4] was “impaired”.

In the case of `CSc1ccc(NC(=O)Nc2ccc(Nc3nccc(Nc4cc(C5CC5)n(C)n4)n3)cc2)cc1` [IPAx], the “XBP1 mRNA splicing (in words)” value [1] is reported as “did not induce XBP1 mRNA splicing”, the “PERK or eIF2α phosphorylation” value ([2]; 4 hr, 1 µM) is reported as “did not stimulate PERK or eIF2α phosphorylation” and the “PERK oligomerization (cross-linked dimers, trimers, tetramers)” value [3] is reported as “showed no effect”.
